Values quoted from earlier work in patent US20090118352A1, “Broad spectrum microbicidal and spermicidal compositions and methods” (ESAWTECH, LTD., priority 2007, published 2009).

What was measured:
HIV [1] = details: phase III trial
[2] = test system: epithelial cells in the vagina
HIV [3] = details: clinical trial in women, stopped 2007

| Substance | HIV transmission rate versus placebo (HIV [1]; N-9 group) | efficacy in preventing HIV transmission (HIV [1]; UN Joint Programme on HIV/AIDS, 2002) | effect on epithelial cells in the vagina [2] | HIV infections, active group versus placebo group (HIV [3]) |
| --- | --- | --- | --- | --- |
| NONOXYL-9 [N-9] | marginally higher | no efficacy | can disrupt epithelial cells in the vagina |  |
| cellulose sulfate |  |  |  | higher number of HIV infections in the active group compared with the placebo group |
